Assay results published in patent US11136561B2, “Polypeptide for the enzymatic detoxification of zearalenone, isolated polynucleotide, and associated additive, use and method” (priority 2014, dated 2021).

B1: polypeptide of SEQ ID No. 1: monooxygenase converting the keto group in position 7 of zearalenone into an ester group (protein)
chain: MTLEAIPVPEETPAQTVPTAPLSEEEREALKHRYRAERDKRIREDGIKQYRSLEGLLDVDDTKDPYTPVKPREPLNDHVDFLFLGGGFAGLIVCSHLKKTGFNDFRIIESGGDFGGVWYWNRFPGAMCDTAAMVYLPLLEETGTVPSAKYVRGPEILAHAQRIARTFDLYPHALFHTHLESLTWDEEQGVWKVKTRQGDSFTATHVGMGTGPLNKPHLPGIPGIEKFKGKAMHTARWDFATTGGGWNGEVMEGLKDKRVGVIGTGATGIQAIPELGRDSGELFVFQRTPSAVAVRGNHPIDPEWFASLDKGWQTKWNRNFIQLMSSGMAENDYVRDGWTDGVKRITARMFAEAAKAGRDPSTLSFDDFLAAYHLSDDEYMTAVRNRTNEVVNDPKTADGLKAWYRQFCKRPCFHDEFLATFNRPTVHLVDTNGQGVTEVDETGVWANGQHYDLDIIVYATGFEFNSEWTYKSGMEVYGRDGLTLTQAWKDGMKTYHGMHINGFPNLFMLQFQQGSSLASNITSNYVDSGYTIAAILNKKKELGAKTVEVPADVQSKWIEHLLTANKGLIGGPECTPGYYNNEGQEEGLKEKLNGARYPAGSLAFFDYIAEWRTNGKFEGLAFDGKQIAVQ
modifications: Trichosporon mycotoxinivorans
notes: monooxygenase converting the keto group in position 7 of zearalenone into an ester group

Experiments:
[1] = cited from earlier work
[2] = test system: bovine; conditions: cited from earlier work
[3] = test system: pigs; conditions: cited from earlier work
[4] = extrusion and oxidants, e.g. 16 hours at 80° C. with 10% hydrogen peroxide solution; cited from earlier work
[5] = test system: mammals; conditions: cited from earlier work
[6] = target: T1, fusion protein containing the hormone-dependent activation domain of the human estrogen receptor alpha and the DNA binding domain of the yeast Gal4 protein (Homo sapiens, UniProt P03372); assay type: cell-based; conditions: for Concentration necessary to express 7.5 relative units of beta-galactosidase: GAL7-lacZ reporter, 18 hours at 30° C.
T1 construct: expressed in transfected cells; host or cells: Saccharomyces cerevisiae YZHB817 (PJ69-4a derivative, pdr5 snq2) carrying expression vector pTK103
T1 sequence (P03372 311-595 limits assumed): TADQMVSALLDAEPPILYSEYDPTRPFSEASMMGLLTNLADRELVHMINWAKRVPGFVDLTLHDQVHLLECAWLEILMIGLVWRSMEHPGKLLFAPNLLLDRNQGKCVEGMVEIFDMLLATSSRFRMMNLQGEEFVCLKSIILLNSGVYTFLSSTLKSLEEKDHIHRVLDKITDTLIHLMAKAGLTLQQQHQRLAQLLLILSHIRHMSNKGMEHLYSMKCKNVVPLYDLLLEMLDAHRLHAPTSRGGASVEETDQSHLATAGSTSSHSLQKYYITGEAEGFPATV
Excerpt: The purified metabolite iZOM as described in Example 2 was used to determine its toxicity, expressed by its estrogenic activity, and compared to that of zearalenone.
For measuring the estrogenic activity, a specially prepared reporter yeast strain, YZHB817 (Bachmann, H.: Phenotypic detection of zearalenone in Saccharomyces cerevisiae. Master thesis BOKU Vienna, 2003) was used. This strain is derived from yeast-two hybrid strain PJ69-4a (MATa trp1-901 leu2-3,112 ura3-52 his3-200 gal4-(deleted) gal80(deleted) LYS2::GAL1-HIS3 GAL2-ADE2 met2::GAL7-lacZ) (James et al. 1996, Genetics; 144(4), 1425-1436). PJ69-4a was further developed by the disruption of the ABC transporters PDR5 and SNQ2. […] This strain was subsequently transformed with an expression vector (pTK103) that triggers the production of a fusion protein containing the hormone-dependent activation domain of the human estrogen receptor alpha and the DNA binding domain of the yeast Gal4 protein, in order to obtain the strain YZHB817.
In the presence of estrogenic substances, the yeast strain YZHB817 induces the expression of the GAL7 lacZ reporter gene, whose product, the enzyme beta-galactosidase, is easy to measure by the hydrolyzation of the chromogenic substrate ONPG (ortho-nitrophenyl-beta-galactoside) at 420 nm (Current Protocols in Molecular Biology, Chapter 13, Yeast (Eds. Lundblad V, Struhl, K.)).
[…] of the estrogenic test solution (ZEN or iZOM) were dissolved in 50% ethanol, mixed with 1.9 ml of the yeast culture of strain […] in SC-TRP medium at a cell density of OD600=0.1, and incubated for 18 hours at 30° C. and 180 rpm. After this, the OD600 of the culture was determined, and the cell pellet (10 min, 13 krpm) of 1 ml was resuspended in […] Z buffer and permeabilized with 25 μl chloroform. […] The supernatant was measured at 420 nm, and the relative units (based on the used cell amount) were calculated as: RU=(OD420×1000)/(OD600×incubation time in min)

[7] = cited from earlier work; remark: listed apart in the source
[8] = test system: polypeptide of SEQ ID No. 1; test: Metabolization of ZEN by yeast strain YZGA515 expressing the polypeptide of SEQ ID No. 1 (test setup), HPLC-MS; assay type: cell-based, Saccharomyces cerevisiae; conditions: expressed in yeast strain YZGA515
Excerpt: The yeast strain YZGA515 (Saccharomyces cerevisiae modified by inactivation of the ABC transporter gene PDR5 (Poppenberger et al. 2003, J. Biol. Chem., 278 (48) 47905-14) for the enhanced absorption of zearalenone (ZEN)) was transformed by the plasmid pCS57 using standard techniques. pCS57 is a plasmid derived from the yeast expression plasmid pADH-FW (Mitterbauer et. al 2002, Appl. Environ. Microbiol.; 68 (3), 1336-1346) with LEU2 as selection marker and ADH1 promoter.
In the test setup, the yeast strain YZGA515 was transformed with the pCS57 vector additionally containing the polynucleotide of SEQ ID No. 4 as BamHI-Xhol fragment after the strongly constitutive ADH1 promoter (alcohol dehydrogenase 1). This enabled the formation of the polypeptide of SEQ ID No. 1.
The yeast strain YZGA515 with the empty vector (pADH-FW without the polynucleotide of SEQ ID No.4) was transformed as negative control.
The transgenic yeasts (test setup and negative control) were cultivated in SC-LEU medium (Sherman 1991, Methods Enzymol., 194, 3-21), centrifuged and resuspended in fresh SC-LEU medium at a concentration of 2 mg/l ZEN, wherein a cell density of OD600=4 was adjusted in both cases. […]
In a further test setup, the metabolite iZOM was additionally measured quantitatively. […]

| Molecule | Time after oral administration at which ZEN is detectable in blood [1] [min] | ZEN concentration made responsible for miscarriages [2] [ppm] | ZEN concentration in feeds that may lead to hyper-estrogenicity [3] | Reduction of ZEN content [4] [%] | ZEN concentration in feeds leading to development disorders [5] | Concentration necessary to express 7.5 relative units of beta-galactosidase [6] | oral LD50 [7] | Toxicity lower by a factor (than zearalenone) ([6]; toxicity expressed by estrogenic activity) | Conversion of ZEN to iZOM [8] |
| --- | --- | --- | --- | --- | --- | --- | --- | --- | --- |
| C[C@H]1CCCC(=O)CCC/C=C/c2cc(O)cc(O)c2C(=O)O1 [ZEN, (2E,11D)-15,17-dihydroxy-11-methyl-12-oxabicyco[12.4.0]octadeca-1(18), 2,14,16-tetraene-7,13-dione] | 30 | 12 | above 1.5 ppm | 83.9 | above 0.5 ppm | approximately 45 ppb | up to 20,000 mg/kg body weight |  |  |
| CC1CCCC(=O)OCCC/C=C/c2cc(O)cc(O)c2C(=O)O1 (stereo not shown) [iZOM] |  |  |  |  |  | about 500 ppb |  | about 100 |  |
| B1 |  |  |  |  |  |  |  |  | able to convert ZEN to its metabolite iZOM |
